Values of other authors as cited in patent US20260216277A1, “TOPICAL COMPOSITIONS AND METHODS FOR TREATING ALOPECIA” (priority 2023, published 2026).

System: radiation-induced alopecia
Conditions: whole brain radiotherapy

## CC1(C)CC(O)CC(C)(C)N1[O] [Tempol, 4-hydroxy-2,2,6,6-tetramethylpiperidine-1-oxyl]
  Safety and tolerability of topical application to the scalp before radiation: relatively safe and well tolerated
